Measurements from BindingDB's records for doi:10.1016/j.ejmech.2021.113556 (Zhejiang University, 2021).

Legend:
[1] = target: Proteasome subunit beta type-7 (Homo sapiens) (UniProt Q99436); assay: Inhibition of human trypsin-like activity of 20s proteasome beta 2c subunit using SUC-KQL-AMC as flurogenic substrate preincubated for 15 mins followed by substrate addition and measured after 1 hr by fluorescence assay
[2] = target: Proteasome subunit beta type-6 (Homo sapiens) (UniProt P28072); assay: Inhibition of caspase-like activity of human proteasome beta-1c subunit using SUC-LLE-AMC as flurogenic substrate preincubated for 15 mins followed by substrate addition and measured after 1 hr by fluorescence assay
Sequence of Proteasome subunit beta type-6 (Homo sapiens) (P28072 whole entry, looked up): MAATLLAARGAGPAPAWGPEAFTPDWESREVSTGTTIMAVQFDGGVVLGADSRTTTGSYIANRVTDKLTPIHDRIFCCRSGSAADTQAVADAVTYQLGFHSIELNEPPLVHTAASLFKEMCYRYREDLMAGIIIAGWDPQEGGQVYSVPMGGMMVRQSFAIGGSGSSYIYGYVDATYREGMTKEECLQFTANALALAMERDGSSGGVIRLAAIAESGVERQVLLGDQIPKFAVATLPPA

Sequence of Proteasome subunit beta type-7 (Homo sapiens) (Q99436 whole entry, looked up): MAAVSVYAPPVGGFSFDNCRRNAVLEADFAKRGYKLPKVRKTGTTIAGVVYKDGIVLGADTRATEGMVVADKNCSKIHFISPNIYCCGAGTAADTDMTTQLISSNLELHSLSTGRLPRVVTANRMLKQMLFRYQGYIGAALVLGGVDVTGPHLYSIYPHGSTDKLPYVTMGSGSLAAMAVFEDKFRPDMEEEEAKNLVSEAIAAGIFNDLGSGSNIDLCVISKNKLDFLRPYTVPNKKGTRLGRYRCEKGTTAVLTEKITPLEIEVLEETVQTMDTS

| IC50 [1] | IC50 [2] | SMILES |
| --- | --- | --- |
| > 10 µM | > 10 µM | COc1ccc(C[C@H](NC(=O)[C@@H](C)NC(=O)N2CCC(OC)CC2)C(=O)N[C@@H](Cc2ccccc2)C(=O)[C@@]2(C)CO2)cc1 |
| > 10 µM | > 10 µM | COc1ccc(C[C@H](NC(=O)[C@@H](C)NC(=O)N2CC[C@H](OC)C2)C(=O)N[C@@H](Cc2ccccc2)C(=O)[C@@]2(C)CO2)cc1 |
| > 10 µM | > 10 µM | COc1ccc(C[C@H](NC(=O)[C@@H](C)NC(=O)N2CCC[C@@H](OC)C2)C(=O)N[C@@H](Cc2ccccc2)C(=O)[C@@]2(C)CO2)cc1 |
| > 10 µM | 4.36 µM | C[C@H](NC(=O)N1CCC(NC(=O)c2nccs2)CC1)C(=O)N[C@@H](Cc1c[nH]c2ccccc12)C(=O)N[C@@H](Cc1ccccc1)C(=O)[C@@]1(C)CO1 |
